Measured values reported in ChEMBL document CHEMBL1136091, “Borrelidin induces the transcription of amino acid biosynthetic enzymes via a GCN4-dependent pathway” (Bioorg Med Chem Lett, 2003).

Assays:
Saccharomyces cerevisiae [1] = assay: Ability to inhibit cell proliferation of Saccharomyces cerevisiae strain BY4741; type: functional, organism-based
Saccharomyces cerevisiae [2] = assay: Global transcription profiling experiment to examine the changes in the mRNA levels in the wt laboratory strain treated with the concentration of borrelidin ([…]) that inhibitedcontinued growth of wt yeast; type: functional
[3] = molecular target: Cyclin-dependent kinase 1 (Saccharomyces cerevisiae S288c, UniProt P00546); assay: Inhibition of cyclin-dependent kinase activity of Cdc28p/CDK2p in Saccharomyces cerevisiae
Cyclin-dependent kinase 1, sequence (P00546 whole entry): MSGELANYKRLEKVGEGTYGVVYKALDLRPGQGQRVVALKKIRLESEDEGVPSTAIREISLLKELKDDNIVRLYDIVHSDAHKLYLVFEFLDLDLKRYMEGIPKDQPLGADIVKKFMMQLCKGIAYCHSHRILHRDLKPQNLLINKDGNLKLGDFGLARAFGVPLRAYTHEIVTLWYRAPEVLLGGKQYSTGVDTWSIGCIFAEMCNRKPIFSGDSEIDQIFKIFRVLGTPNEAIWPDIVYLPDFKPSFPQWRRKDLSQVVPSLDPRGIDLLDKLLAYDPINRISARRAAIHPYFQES

Compound `C[C@@H]1C[C@H](C)C[C@H](C)[C@@H](O)CC(=O)O[C@H]([C@@H]2CCC[C@H]2C(=O)O)C/C=C/C=C(/C#N)[C@H](O)[C@@H](C)C1` [BORRELIDIN] has an IC50 (Saccharomyces cerevisiae [1]) of 23 µM, an Inhibition (Saccharomyces cerevisiae [2]) of 75% and an IC50 [3] of 24 µM.
